pIC50: −log10 of the molar value. Where two headings read alike, the source gives them in different places.
How the values were obtained:
[1] = molecular target: T1, MsEH (Mus musculus, UniProt P34914); test: sEH inhibitory activity, PHOME fluorescence assay (MsEH); format: biochemical
T1 sequence (P34914 1-554): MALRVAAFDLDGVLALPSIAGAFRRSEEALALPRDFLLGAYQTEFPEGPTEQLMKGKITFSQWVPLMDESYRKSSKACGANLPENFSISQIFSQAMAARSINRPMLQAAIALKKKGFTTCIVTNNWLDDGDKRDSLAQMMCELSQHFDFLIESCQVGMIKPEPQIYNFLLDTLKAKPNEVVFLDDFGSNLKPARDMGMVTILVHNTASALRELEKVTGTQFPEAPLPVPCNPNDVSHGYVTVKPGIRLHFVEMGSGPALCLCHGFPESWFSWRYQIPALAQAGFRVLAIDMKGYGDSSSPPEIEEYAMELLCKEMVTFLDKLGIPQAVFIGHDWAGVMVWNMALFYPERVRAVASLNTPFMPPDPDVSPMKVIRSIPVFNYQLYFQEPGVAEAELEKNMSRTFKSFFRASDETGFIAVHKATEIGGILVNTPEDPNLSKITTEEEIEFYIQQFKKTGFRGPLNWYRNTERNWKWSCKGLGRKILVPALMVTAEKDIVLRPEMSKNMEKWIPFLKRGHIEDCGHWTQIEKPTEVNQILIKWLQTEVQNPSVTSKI
From the text: (§1) Detection principle: a specific substrate, (3-phenyl-oxy)-acetic acid cyano-(6-methoxy-naphthalen-2-yl)methyl ester, namely PHOME, is non-fluorescent but can be hydrolyzed under the action of sEH enzyme to generate a product 6-methoxy-2-naphthaldehyde. The 6-methoxy-2-naphthaldehyde can emit fluorescence with a wavelength of 465 nm under 330 nm light wave excitation, and an intensity of the detected fluorescence signal is inversely proportional to an inhibitory effect on the sEH enzyme. Based on the above principle, the inhibition rates of samples with different concentrations were calculated compared with the positive control group. The IC50 value of the compound was calculated based on the inhibition rate and concentration using SPSS 20 software.
(§2) 25 mM Tris-HCl buffer (pH=7.4, containing 0.1 mg/mL BSA): […] BAS was added to 12.5 mL of 1 M Tris-HCl buffer, followed by diluting with purified water, and a resulting mixture was adjusted to a pH value of 7.4 with hydrochloric acid, and diluted to 500 mL.
(§3) PHOME solution: 0.79 mg PHOME was dissolved in 106 μL DMSO to obtain a 20 mM PHOME solution, which was diluted to ⅓ mM with Tris-HCl buffer before use.
(§4) sEH solution: sEH (5 mg/mL) stock solution was stored in a refrigerator at −80° C. and diluted to 4 μg/mL with 25 mM Tris-HCl buffer before use.
(§5) A sample powder to be tested was dissolved in DMSO to a 20 mM solution, stored in a refrigerator at −20° C. for later use, and diluted with Tris-HCl buffer to corresponding concentrations when used.
(§6) Experimental design: solvent group, 100% activity group (A), inhibitor group (B), positive control group (C), as shown in Table 1.
(§7) Three replicate wells were set for each sample, and the average value of the three replicate wells was the fluorescence value (F) of the compound to be tested. […] The IC50 value of the compound was calculated based on the inhibition rate and concentration using SPSS 20 software.

[2] = molecular target: T2, HsEH (Homo sapiens, UniProt P34913); test: biochemical; format: biochemical; conditions: for IC50: PHOME substrate 50 μM, sEH 400 ng/ml, 37° C., 10 min, fluorescence 330/465 nm, read-out: HsEH IC50 (nM) Inhibitory activity against HsEH
T2 sequence (P34913 1-555): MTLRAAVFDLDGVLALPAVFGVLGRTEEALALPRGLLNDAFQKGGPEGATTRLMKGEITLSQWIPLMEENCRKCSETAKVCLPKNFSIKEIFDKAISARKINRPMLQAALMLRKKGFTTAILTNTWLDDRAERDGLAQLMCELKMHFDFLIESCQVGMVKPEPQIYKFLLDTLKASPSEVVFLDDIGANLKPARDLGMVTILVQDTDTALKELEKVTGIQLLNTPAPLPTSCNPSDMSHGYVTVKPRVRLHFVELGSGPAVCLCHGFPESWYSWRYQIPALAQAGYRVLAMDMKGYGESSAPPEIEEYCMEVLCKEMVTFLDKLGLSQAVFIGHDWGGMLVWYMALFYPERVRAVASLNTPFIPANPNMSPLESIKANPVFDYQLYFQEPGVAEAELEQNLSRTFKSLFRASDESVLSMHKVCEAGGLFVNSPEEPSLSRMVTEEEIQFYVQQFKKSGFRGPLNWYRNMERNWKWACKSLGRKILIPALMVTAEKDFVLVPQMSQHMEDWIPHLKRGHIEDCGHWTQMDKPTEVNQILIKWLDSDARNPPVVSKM
From the text: as §1, §2, §3, §4, §5, §6, §7

| SMILES | pIC50 [1] | IC50 [2] | pIC50 [2] |
| --- | --- | --- | --- |
| CCN(CC)C(=O)[C@H]1CCCN(Cc2ccc(NC(=O)NC34CC5CC(C)(CC(C)(C5)C3)C4)c(F)c2)C1 [CL-106, (S)-1-(4-(3-((1r,3R,5S,7S)-3,5-dimethyladamantan-1-yl)ureido)-3-fluorobenzyl)-N,N-diethylpiperidine-3-carboxamide] | 9.30 | 0.35 nM | – |
| CC12CC3CC(C)(C1)CC(NC(=O)Nc1ccc(CN4CCC[C@H](C(=O)N(CCO)CCO)C4)cc1F)(C3)C2 [CL-107, (S)-1-(4-(3-((1r,3R,5S,7S)-3,5-dimethyladamantan-1-yl)ureido)-3-fluorobenzyl)-N,N-bis(2-hydroxyethyl) piperidine-3-carboxamide] | 9.54 | 0.28 nM | – |
| CC12CC3CC(C)(C1)CC(NC(=O)Nc1ccc(CN4CCC(C(=O)N(CCO)CCO)CC4)cc1F)(C3)C2 [CL-109, 1-(4-(3-((1r,7r)-3,5-dimethyladamantan-1-yl)ureido)-3-fluorobenzyl)-N,N-bis(2-hydroxyethyl) piperidine-4-carboxamide] | 9.26 | 6.72 nM | – |
| CC12CC3CC(C)(C1)CC(NC(=O)Nc1ccc(CN4CCC[C@H](C(=O)NC(CO)CO)C4)cc1F)(C3)C2 [CL-112, (S)—N-(1,3-dihydroxypropan-2-yl)-1-(4-(3-((1r,3R,5S,7S)-3,5-dimethyladamantan-1-yl)ureido)-3-fluorobenzyl) piperidine-3-carboxamide] | 9.46 | 0.28 nM | – |
| CC(O)CNC(=O)[C@H]1CCCN(Cc2ccc(NC(=O)NC34CC5CC(C)(CC(C)(C5)C3)C4)c(F)c2)C1 (stereo partly drawn) [CL-113, (3S)-1-(4-(3-((1r,3R,5S,7S)-3,5-dimethyladamantan-1-yl)ureido)-3-fluorobenzyl)-N-(2-hydroxypropyl) piperidine-3-carboxamide] | 9.24 | 0.28 nM | – |
| CC12CC3CC(C)(C1)CC(NC(=O)Nc1ccc(CN4CCC[C@H](C(=O)NCCO)C4)cc1F)(C3)C2 [CL-114, (S)-1-(4-(3-((1r,3R,5S,7S)-3,5-dimethyladamantan-1-yl)ureido)-3-fluorobenzyl)-N-(2-hydroxyethyl) piperidine-3-carboxamide] | 9.74 | 0.63 nM | – |
| CC12CC3CC(C)(C1)CC(NC(=O)Nc1ccc(CN4CCC[C@H](C(=O)NC(CO)(CO)CO)C4)cc1F)(C3)C2 [CL-115, (S)—N-(1,3-dihydroxy-2-(hydroxymethyl)propan-2-yl)-1-(4-(3-((1r,3R,5S,7S)-3,5-dimethyladamantan-1-yl)ureido)-3-fluorobenzyl) piperidine-3-carboxamide] | 9.49 | 0.14 nM | – |
| CC12CC3CC(C)(C1)CC(NC(=O)Nc1ccc(CN4CCC[C@H](C(=O)N5CCN(CCO)CC5)C4)cc1F)(C3)C2 [CL-116, 1-((1r,3R,5S,7S)-3,5-dimethyladamantan-1-yl)-3-(2-fluoro-4-(((S)-3-(4-(2-hydroxyethyl)piperazine-1-carbonyl)piperidin-1-yl)methyl)phenyl) urea] | 9.26 | 0.98 nM | – |
| CC12CC3CC(C)(C1)CC(NC(=O)Nc1ccc(CN4CCC(C(=O)NC(CO)(CO)CO)CC4)cc1F)(C3)C2 [CL-117, N-(1,3-dihydroxy-2-(hydroxymethyl)propan-2-yl)-1-(4-(3-((1r,7r)-3,5-dimethyladamantan-1-yl)ureido)-3-fluorobenzyl) piperidine-4-carboxamide] | 9.92 | 6.51 nM | – |
| CC12CC3CC(C)(C1)CC(NC(=O)Nc1ccc(CN4CCC(C(=O)NC(CO)CO)CC4)cc1F)(C3)C2 [CL-119, N-(1,3-dihydroxypropan-2-yl)-1-(4-(3-((1r,7r)-3,5-dimethyladamantan-1-yl)ureido)-3-fluorobenzyl) piperidine-4-carboxamide] | 8.65 | – | 7.50 |
| CC(O)CNC(=O)C1CCN(Cc2ccc(NC(=O)NC34CC5CC(C)(CC(C)(C5)C3)C4)c(F)c2)CC1 (centres unmarked) [CL-120, 1-(4-(3-((1r,7r)-3,5-dimethyladamantan-1-yl)ureido)-3-fluorobenzyl)-N-(2-hydroxypropyl) piperidine-4-carboxamide] | 9.33 | – | 8.22 |
| C=CC(=O)N1CCCN(C(=O)[C@H]2CCCN(Cc3ccc(NC(=O)NC45CC6CC(C)(CC(C)(C6)C4)C5)c(F)c3)C2)CC1 [CL-201, 1-(4-(((S)-3-(4-acryloyl-1,4-diaza-1-carbonyl)piperidin-1-yl)methyl)-2-fluorophenyl)-3-((1r,3R,5S,7S)-3,5-dimethyladamantan-1-yl) urea] | 8.96 | 0.42 nM | – |
| CC12CC3CC(C)(C1)CC(NC(=O)Nc1ccc(CN4CCC[C@H](C(=O)N5CCCN(C(=O)C6CC6)CC5)C4)cc1F)(C3)C2 [CL-204] | 9.10 | 0.42 nM | – |
| CCC(=O)N1CCC(CC(=O)N2CCCN(Cc3ccc(NC(=O)NC45CC6CC(C)(CC(C)(C6)C4)C5)c(F)c3)CC2)CC1 [GL-1, 1-((1r,3R,5S,7r)-3,5-dimethyladamantan-1-yl)-3-(2-fluoro-4-((4-(2-(1-propionylpiperidin-4-yl)acetyl)-1,4-diaza-1-yl)methyl)phenyl) urea] | 10.15 | 0.33 nM | – |
| CCC(C)C(=O)N1CCC(CC(=O)N2CCCN(Cc3ccc(NC(=O)NC45CC6CC(C)(CC(C)(C6)C4)C5)c(F)c3)CC2)CC1 [GL-2, 1-((1r,3R,5S,7r)-3,5-dimethyladamantan-1-yl)-3-(2-fluoro-4-((4-(2-(1-(2-methylbutyryl)piperidin-4-yl)acetyl)-1,4-diaza-1-yl)methyl)phenyl) urea] | 9.80 | 0.77 nM | – |
| CC(=O)N1CCC(CC(=O)N2CCCN(Cc3ccc(NC(=O)NC45CC6CC(C)(CC(C)(C6)C4)C5)c(F)c3)CC2)CC1 [GL-3, 1-(4-((4-(2-(1-acetylpiperidin-4-yl)acetyl)-1,4-diaza-1-yl)methyl)-2-fluorophenyl)-3-((1r,3R,5S,7r)-3,5-dimethyladamantan-1-yl) urea] | 9.96 | 0.49 nM | – |
| CC12CC3CC(C)(C1)CC(NC(=O)Nc1ccc(CN4CCCN(C(=O)CC5CCN(CCO)CC5)CC4)cc1F)(C3)C2 [GL-21, 1-((1r,3R,5S,7r)-3,5-dimethyladamantan-1-yl)-3-(2-fluoro-4-((4-(2-(1-(2-hydroxyethyl)piperidin-4-yl)acetyl)-1,4-diaza-1-yl)methyl)phenyl) urea] | 9.21 | – | 8.33 |
| CC12CC3CC(C)(C1)CC(NC(=O)Nc1ccc(CN4CCCN(C(=O)CC5CCN(CC(O)CO)CC5)CC4)cc1F)(C3)C2 [GL-22, 1-(4-((4-(2-(1-(2,3-dihydroxypropyl)piperidin-4-yl)acetyl)-1,4-diaza-1-yl)methyl)-2-fluorophenyl)-3-((1r,3R,5S,7r)-3,5-dimethyladamantan-1-yl) urea] | 8.90 | 58.1 nM | – |
| CN(C)CCN1CCC(CC(=O)N2CCCN(Cc3ccc(NC(=O)NC45CC6CC(C)(CC(C)(C6)C4)C5)c(F)c3)CC2)CC1 [GL-23, 1-((1r,3R,5S,7r)-3,5-dimethyladamantan-1-yl)-3-(4-((4-(2-(1-(2-(dimethylamino)ethyl)piperidin-4-yl)acetyl)-1,4-diaza-1-yl)methyl)-2-fluorophenyl) urea] | 9.17 | 2.59 nM | – |
